Test results as given in the NIST ThermoML archive (doi:10.1021/je200434a).
Numbers after ± are expanded uncertainties.

Conditions: 101.33 kPa, Liquid; for viscosity: Concentric cylinders viscometry; for mass density: Vibrating tube method

Structure (SMILES): CCCCOS(=O)(=O)[O-].CC[n+]1ccn(C)c1 [3-ethyl-1-methylimidazolium butyl sulfate]
- viscosity (283.15 K): 468.4 ± 23 mPa·s
- viscosity (288.15 K): 332.5 ± 16 mPa·s
- viscosity (293.15 K): 242.3 ± 11 mPa·s
- mass density (293.15 K): 1179.68 ± 1.2 kg/m3
- mass density (294.15 K): 1178.99 ± 1.2 kg/m3
- mass density (295.15 K): 1178.3 ± 1.2 kg/m3
- mass density (296.15 K): 1177.62 ± 1.2 kg/m3
- mass density (297.15 K): 1176.93 ± 1.2 kg/m3
- viscosity (298.15 K): 180.8 ± 8 mPa·s
- mass density (298.15 K): 1176.24 ± 1.2 kg/m3
- mass density (299.15 K): 1175.55 ± 1.2 kg/m3
- mass density (300.15 K): 1174.87 ± 1.2 kg/m3
- mass density (301.15 K): 1174.19 ± 1.2 kg/m3
- mass density (302.15 K): 1173.5 ± 1.2 kg/m3
- viscosity (303.15 K): 137.9 ± 6 mPa·s
- mass density (303.15 K): 1172.82 ± 1.2 kg/m3
- mass density (304.15 K): 1172.14 ± 1.2 kg/m3
- mass density (305.15 K): 1171.46 ± 1.2 kg/m3
- mass density (306.15 K): 1170.78 ± 1.2 kg/m3
- mass density (307.15 K): 1170.11 ± 1.2 kg/m3
- viscosity (308.15 K): 107.2 ± 4.5 mPa·s
- mass density (308.15 K): 1169.43 ± 1.2 kg/m3
- mass density (309.15 K): 1168.75 ± 1.2 kg/m3
- mass density (310.15 K): 1168.08 ± 1.2 kg/m3
- mass density (311.15 K): 1167.41 ± 1.2 kg/m3
- mass density (312.15 K): 1166.73 ± 1.2 kg/m3
- viscosity (313.15 K): 84.8 ± 3.5 mPa·s
- mass density (313.15 K): 1166.06 ± 1.2 kg/m3
- mass density (314.15 K): 1165.39 ± 1.2 kg/m3
- mass density (315.15 K): 1164.73 ± 1.2 kg/m3
- mass density (316.15 K): 1164.06 ± 1.2 kg/m3
- mass density (317.15 K): 1163.39 ± 1.2 kg/m3
- viscosity (318.15 K): 68.1 ± 2.8 mPa·s
- mass density (318.15 K): 1162.73 ± 1.2 kg/m3
- mass density (319.15 K): 1162.06 ± 1.2 kg/m3
- mass density (320.15 K): 1161.4 ± 1.2 kg/m3
- mass density (321.15 K): 1160.74 ± 1.2 kg/m3
- mass density (322.15 K): 1160.07 ± 1.2 kg/m3
- viscosity (323.15 K): 55.6 ± 2.3 mPa·s
- mass density (323.15 K): 1159.41 ± 1.2 kg/m3
- mass density (324.15 K): 1158.76 ± 1.2 kg/m3
- mass density (325.15 K): 1158.1 ± 1.2 kg/m3
- mass density (326.15 K): 1157.43 ± 1.2 kg/m3
- mass density (327.15 K): 1156.78 ± 1.2 kg/m3
- viscosity (328.15 K): 45.9 ± 1.9 mPa·s
- mass density (328.15 K): 1156.12 ± 1.2 kg/m3
- mass density (329.15 K): 1155.47 ± 1.2 kg/m3
- mass density (330.15 K): 1154.81 ± 1.2 kg/m3
- mass density (331.15 K): 1154.16 ± 1.2 kg/m3
- mass density (332.15 K): 1153.51 ± 1.2 kg/m3
- viscosity (333.15 K): 38.4 ± 1.6 mPa·s
- mass density (333.15 K): 1152.85 ± 1.2 kg/m3
- mass density (334.15 K): 1152.2 ± 1.2 kg/m3
- mass density (335.15 K): 1151.55 ± 1.2 kg/m3
- mass density (336.15 K): 1150.9 ± 1.2 kg/m3
- mass density (337.15 K): 1150.25 ± 1.2 kg/m3
- viscosity (338.15 K): 32.4 ± 1.3 mPa·s
- mass density (338.15 K): 1149.6 ± 1.2 kg/m3
- mass density (339.15 K): 1148.95 ± 1.2 kg/m3
- mass density (340.15 K): 1148.3 ± 1.1 kg/m3
- mass density (341.15 K): 1147.65 ± 1.1 kg/m3
- mass density (342.15 K): 1147.01 ± 1.1 kg/m3
- viscosity (343.15 K): 27.7 ± 1.1 mPa·s
- mass density (343.15 K): 1146.37 ± 1.1 kg/m3
- mass density (344.15 K): 1145.72 ± 1.1 kg/m3
- mass density (345.15 K): 1145.07 ± 1.1 kg/m3
- mass density (346.15 K): 1144.43 ± 1.1 kg/m3
- mass density (347.15 K): 1143.78 ± 1.1 kg/m3
- viscosity (348.15 K): 23.8 ± 1 mPa·s
- mass density (348.15 K): 1143.14 ± 1.1 kg/m3
- mass density (349.15 K): 1142.5 ± 1.1 kg/m3
- mass density (350.15 K): 1141.85 ± 1.1 kg/m3
- mass density (351.15 K): 1141.21 ± 1.1 kg/m3
- mass density (352.15 K): 1140.57 ± 1.1 kg/m3
- viscosity (353.15 K): 20.7 ± 0.9 mPa·s
- mass density (353.15 K): 1139.93 ± 1.1 kg/m3
- mass density (354.15 K): 1139.29 ± 1.1 kg/m3
- mass density (355.15 K): 1138.65 ± 1.1 kg/m3
- mass density (356.15 K): 1138.01 ± 1.1 kg/m3
- mass density (357.15 K): 1137.37 ± 1.1 kg/m3
- viscosity (358.15 K): 18.1 ± 0.8 mPa·s
- mass density (358.15 K): 1136.73 ± 1.1 kg/m3
- mass density (359.15 K): 1136.09 ± 1.1 kg/m3
- mass density (360.15 K): 1135.45 ± 1.1 kg/m3
- mass density (361.15 K): 1134.82 ± 1.1 kg/m3
- mass density (362.15 K): 1134.18 ± 1.1 kg/m3
- viscosity (363.15 K): 16 ± 0.7 mPa·s
- mass density (363.15 K): 1133.54 ± 1.1 kg/m3
- viscosity (368.15 K): 14.2 ± 0.6 mPa·s
- viscosity (373.15 K): 12.6 ± 0.5 mPa·s

Structure (SMILES): CCn1cc[n+](C)c1.O=S(=O)([O-])O [1-ethyl-3-methylimidazolium hydrogen sulfate]
- viscosity (283.15 K): 5756.7 ± 410 mPa·s
- viscosity (288.15 K): 3635 ± 240 mPa·s
- viscosity (293.15 K): 2389.9 ± 150 mPa·s
- mass density (293.15 K): 1368.86 ± 0.58 kg/m3
- mass density (294.15 K): 1368.25 ± 0.58 kg/m3
- mass density (295.15 K): 1367.63 ± 0.58 kg/m3
- mass density (296.15 K): 1367 ± 0.58 kg/m3
- mass density (297.15 K): 1366.38 ± 0.58 kg/m3
- viscosity (298.15 K): 1628.4 ± 96 mPa·s
- mass density (298.15 K): 1365.77 ± 0.58 kg/m3
- mass density (299.15 K): 1365.14 ± 0.58 kg/m3
- mass density (300.15 K): 1364.53 ± 0.58 kg/m3
- mass density (301.15 K): 1363.91 ± 0.58 kg/m3
- mass density (302.15 K): 1363.29 ± 0.58 kg/m3
- viscosity (303.15 K): 1144.8 ± 64 mPa·s
- mass density (303.15 K): 1362.67 ± 0.58 kg/m3
- mass density (304.15 K): 1362.05 ± 0.58 kg/m3
- mass density (305.15 K): 1361.44 ± 0.58 kg/m3
- mass density (306.15 K): 1360.82 ± 0.58 kg/m3
- mass density (307.15 K): 1360.21 ± 0.58 kg/m3
- viscosity (308.15 K): 827.1 ± 44 mPa·s
- mass density (308.15 K): 1359.59 ± 0.58 kg/m3
- mass density (309.15 K): 1358.98 ± 0.58 kg/m3
- mass density (310.15 K): 1358.76 ± 0.58 kg/m3
- mass density (311.15 K): 1358.14 ± 0.58 kg/m3
- mass density (312.15 K): 1357.52 ± 0.58 kg/m3
- viscosity (313.15 K): 612.2 ± 31 mPa·s
- mass density (313.15 K): 1356.9 ± 0.58 kg/m3
- mass density (314.15 K): 1356.28 ± 0.58 kg/m3
- mass density (315.15 K): 1355.67 ± 0.57 kg/m3
- mass density (316.15 K): 1355.05 ± 0.57 kg/m3
- mass density (317.15 K): 1354.43 ± 0.57 kg/m3
- viscosity (318.15 K): 463 ± 23 mPa·s
- mass density (318.15 K): 1353.81 ± 0.57 kg/m3
- mass density (319.15 K): 1353.19 ± 0.57 kg/m3
- mass density (320.15 K): 1352.57 ± 0.57 kg/m3
- mass density (321.15 K): 1351.96 ± 0.57 kg/m3
- mass density (322.15 K): 1351.34 ± 0.57 kg/m3
- viscosity (323.15 K): 356.8 ± 17 mPa·s
- mass density (323.15 K): 1350.72 ± 0.57 kg/m3
- mass density (324.15 K): 1350.11 ± 0.57 kg/m3
- mass density (325.15 K): 1349.49 ± 0.57 kg/m3
- mass density (326.15 K): 1348.88 ± 0.57 kg/m3
- mass density (327.15 K): 1348.27 ± 0.57 kg/m3
- viscosity (328.15 K): 279.7 ± 13 mPa·s
- mass density (328.15 K): 1347.65 ± 0.57 kg/m3
- mass density (329.15 K): 1347.04 ± 0.57 kg/m3
- mass density (330.15 K): 1346.43 ± 0.57 kg/m3
- mass density (331.15 K): 1345.82 ± 0.57 kg/m3
- mass density (332.15 K): 1345.2 ± 0.57 kg/m3
- viscosity (333.15 K): 222.6 ± 9.9 mPa·s
- mass density (333.15 K): 1344.6 ± 0.57 kg/m3
- mass density (334.15 K): 1343.99 ± 0.57 kg/m3
- mass density (335.15 K): 1343.38 ± 0.57 kg/m3
- mass density (336.15 K): 1342.77 ± 0.57 kg/m3
- mass density (337.15 K): 1342.16 ± 0.57 kg/m3
- viscosity (338.15 K): 179.6 ± 7.8 mPa·s
- mass density (338.15 K): 1341.56 ± 0.56 kg/m3
- mass density (339.15 K): 1340.95 ± 0.56 kg/m3
- mass density (340.15 K): 1340.35 ± 0.56 kg/m3
- mass density (341.15 K): 1339.75 ± 0.56 kg/m3
- mass density (342.15 K): 1339.14 ± 0.56 kg/m3
- viscosity (343.15 K): 146.7 ± 6.2 mPa·s
- mass density (343.15 K): 1338.54 ± 0.56 kg/m3
- mass density (344.15 K): 1337.94 ± 0.56 kg/m3
- mass density (345.15 K): 1337.34 ± 0.56 kg/m3
- mass density (346.15 K): 1336.74 ± 0.56 kg/m3
- mass density (347.15 K): 1336.14 ± 0.56 kg/m3
- viscosity (348.15 K): 121.2 ± 5.1 mPa·s
- mass density (348.15 K): 1335.54 ± 0.56 kg/m3
- mass density (349.15 K): 1334.94 ± 0.56 kg/m3
- mass density (350.15 K): 1334.35 ± 0.56 kg/m3
- mass density (351.15 K): 1333.75 ± 0.56 kg/m3
- mass density (352.15 K): 1333.16 ± 0.56 kg/m3
- viscosity (353.15 K): 101.2 ± 4.2 mPa·s
- mass density (353.15 K): 1332.57 ± 0.56 kg/m3
- mass density (354.15 K): 1331.97 ± 0.56 kg/m3
- mass density (355.15 K): 1331.38 ± 0.56 kg/m3
- mass density (356.15 K): 1330.79 ± 0.56 kg/m3
- mass density (357.15 K): 1330.2 ± 0.56 kg/m3
- viscosity (358.15 K): 85.2 ± 3.5 mPa·s
- mass density (358.15 K): 1329.61 ± 0.56 kg/m3
- mass density (359.15 K): 1329.02 ± 0.56 kg/m3
- mass density (360.15 K): 1328.44 ± 0.56 kg/m3
- mass density (361.15 K): 1327.85 ± 0.56 kg/m3
- mass density (362.15 K): 1327.26 ± 0.56 kg/m3
- viscosity (363.15 K): 72.4 ± 2.9 mPa·s
- mass density (363.15 K): 1326.68 ± 0.55 kg/m3
- viscosity (368.15 K): 61.9 ± 2.5 mPa·s
- viscosity (373.15 K): 53.4 ± 2.2 mPa·s
